Results taken from patent US6825350B2, “Sulfonamide and sulfamide substituted imidazoquinolines and methods for the treatment of periodontal disease using these and other immune response modifiers” (3M Innovative Properties Company, priority 1999, dated 2004).

How the values were obtained:
interferon (α) = assay: Cytokine induction in human cells: interferon (α) by ELISA; type: cell-based; conditions: Homo sapiens, PBMC, human PBMCs, 18 to 24 hours incubation, ELISA of culture supernatant; read-out: Lowest Effective Concentration (μM) Interferon
[1] = tested on: tumor necrosis factor (α); assay: Cytokine induction in human cells: tumor necrosis factor (α) by ELISA; type: cell-based; conditions: Homo sapiens, PBMC, human PBMCs, 18 to 24 hours incubation, ELISA of culture supernatant; read-out: Lowest Effective Concentration (μM) Tumor Necrosis Factor

| SMILES | minimal effective concentration (interferon (α)) | minimal effective concentration [1] |
| --- | --- | --- |
| COCCc1nc2c(N)nc3ccccc3c2n1CCCCNS(=O)(=O)c1ccc(Br)cc1 [Example 152] | 0.0001 µM | 10 µM |
| CCCCc1nc2c(N)nc3ccccc3c2n1CCCCNS(=O)(=O)CCC [Example 51] | 0.0015 µM | 0.37 µM |
| Nc1nc2c(c3c1ncn3CCCCNS(=O)(=O)c1ccc(I)cc1)CCCC2 [Example 61] | 3.33 µM | > 30 µM |
| CCCCc1nc2c(N)nc3ccccc3c2n1CCCCNS(=O)(=O)c1c(F)c(F)c(F)c(F)c1F [Example 90] | 0.01 µM | 1 µM |
| COCCc1nc2c(N)nc3ccccc3c2n1CCCCNS(=O)(=O)N1CCCC1 [Example 229] | 0.0001 µM | 0.1 µM |
| CCCCc1nc2c(N)nc3ccccc3c2n1CCCCNS(=O)(=O)c1c(C)c(C)c(C)c(C)c1C [Example 107] | 1 µM | > 10 µM |
| COCCc1nc2c(N)nc3ccccc3c2n1CCCCNS(=O)(=O)c1ccc(OC(F)(F)F)cc1 [Example 154] | 0.001 µM | 10 µM |
| Nc1nc2c(c3c1ncn3CCCCNS(=O)(=O)c1cccc3ccccc13)CCCC2 [Example 70] | > 30 µM | > 30 µM |
| CCCCc1nc2c(N)nc3ccccc3c2n1CCCCNS(=O)(=O)C(C)C [Example 38] | 0.0015 µM | 0.37 µM |
| CCCCc1nc2c(N)nc3ccccc3c2n1CCCCNS(=O)(=O)c1sc(NC(C)=O)nc1C [Example 77] | 0.001 µM | 1 µM |
| COCCc1nc2c(N)nc3ccccc3c2n1CCCCNS(=O)(=O)Nc1ccccc1 [Example 224] | 0.0001 µM | 10 µM |
| CCCCc1nc2c(N)nc3ccccc3c2n1CCCCNS(=O)(=O)c1ccc2c(c1)CN(C(=O)C(F)(F)F)CC2 [Example 102] | 0.001 µM | 10 µM |
| CCCCc1nc2c(N)nc3ccccc3c2n1CCCCNS(=O)(=O)c1ccccc1C(F)(F)F [Example 103] | 0.1 µM | 10 µM |
| CCS(=O)(=O)NCCCCn1c(CCOC)nc2c(N)nc3c(c21)CCCC3 [Example 207] | 0.001 µM | 1 µM |
| CCCCc1nc2c(N)nc3c(c2n1CCCCNS(=O)(=O)C(C)C)CCCC3 [Example 203] | 0.0001 µM | 1 µM |
| CCCCc1nc2c(N)nc3ccccc3c2n1CCCCNS(=O)(=O)c1ccc(Br)s1 [Example 99] | 0.1 µM | 10 µM |
| CCCCc1nc2c(N)nc3ccccc3c2n1CCNS(=O)(=O)c1cccc2c(N(C)C)cccc12 [Example 33] | 1.11 µM | 10 µM |
| CCCCc1nc2c(N)nc3ccccc3c2n1CCCCNS(=O)(=O)c1cccc(OC)c1 [Example 104] | 0.01 µM | > 10 µM |
| CCCCc1nc2c(N)nc3ccccc3c2n1CCCCNS(=O)(=O)C[C@]12CC[C@H](CC1=O)C2(C)C [Example 73] | 0.001 µM | 0.1 µM |
| CCCCCCCCS(=O)(=O)NCCCCn1cnc2c(N)nc3c(c21)CCCC3 [Example 56] | > 30 µM | > 30 µM |
| CCCCS(=O)(=O)NCCCCn1cnc2c(N)nc3ccccc3c21 [Example 13, N^1-[4-(4-Amino-1H-imidazo[4,5-c]quinolin-1-y)butyl]-1-butanesulfonamide] | 10 µM | > 30 µM |
| COCCc1nc2c(N)nc3ccccc3c2n1CCCCNS(=O)(=O)Cc1ccccc1[N+](=O)[O-] [Example 138] | 0.0001 µM | 10 µM |
| COCCc1nc2c(N)nc3ccccc3c2n1CCCCNS(=O)(=O)c1cccc2c(N(C)C)cccc12 [Example 114] | 0.01 µM | > 10 µM |
